Experimental data from patent US8420657B2 (Novartis AG, priority 2008, dated 2013).

target: T1, GST-JAK2(808-1132) (Homo sapiens, UniProt O60674); experiment: JAK2 kinase assay (Caliper mobility shift, LabChip 3000); assay type: biochemical
T1 construct: GST-JAK2(808-1132); purchased Invitrogen (Carlsbad, USA) #4288
From the text: All four kinases of the JAK/TYK-kinase family were used as purified recombinant GST-fusion proteins, containing the active kinase domains. GST-JAK1 (866-1154), GST-JAK3(811-1124), and GST-TYK2(888-1187) were expressed and purified by affinity chromatography at the EPK biology unit. GST-JAK2(808-1132) was purchased from Invitrogen (Carlsbad, USA, #4288).
The kinase assays were based on the Caliper mobility shift assay using the LabChip 3000 systems. This technology is similar to capillary electrophoresis and uses charge driven separation of substrate and product in a microfluidic chip.
All kinase reactions were performed in 384 well microtiter plates in a total reaction volume of 18 μl. The assay plates were prepared with 0.1 μl per well of test compound in the appropriate test concentration, as described under the section “preparation of compound dilutions”. The reactions were started by combining 9 μl of substrate mix (consisting of peptide and ATP) with 9 μl of kinase dilution. The reactions were incubated for 60 minutes at 30° C. and stopped by adding 70 μl of stop buffer (100 mM Hepes, 5% DMSO, 0.1% Coating reagent, 10 mM EDTA, 0.015% Brij 35).
Fluorescently labeled synthetic peptides were used as substrates in all reactions. A peptide derived from the sequence of IRS-1(IRS-1 peptide, SEQ ID NO: 1 FITC-Ahx-KKSRGDYMTMQIG-NH2) was used for JAK1 and TYK2 and a peptide named JAK3tide SEQ ID NO: 2 (FITC-GGEEEEYFELVKKKK-NH2) for JAK2 and JAK3. Specific assay conditions are described in Table1:
The terminated reactions were transferred to the Caliper LabChip 3000 reader and the turnover of each reaction was measured by determining the substrate/product ratio.
Test compounds were dissolved in DMSO (10 mM) and transferred into 1.4 mL flat bottom or V-shaped Matrix tubes carrying a unique 2D matrix chip by individual compound hubs. The numbers of these chips were distinctively linked to the individual compound identification numbers. The stock solutions were stored at −20° C. if not used immediately. For the test procedure the vials were defrosted and identified by a scanner whereby a working sheet was generated that guided the subsequent working steps. Compound dilutions were made in 96 well plates. This format enabled the assay of maximally 40 individual test compounds at 8 concentrations (single points) including 4 reference compounds. The dilution protocol included the production of pre-dilution plates, master plates and assay plates:
Pre-dilution plates: 96 polypropylene well plates were used as pre-dilution plates. A total of 4 pre-dilution plates were prepared including 10 test compounds each on the plate positions A1-A10, one standard compound at A11 and one DMSO control at A12. All dilution steps were done on a HamiltonSTAR robot.
Master plates: 100 μL of individual compound dilutions including standard compound and controls of the 4 “pre-dilution plates” were transferred into a 384 “master plate” including the following concentrations 1,820, […], 182, 54.6, 18.2, 5.46, 1.82 and 0.546 μM, respectively in 90% of DMSO.
Assay plates: Identical assay plates were then prepared by pipetting 100 nL each of compound dilutions of the master plates into 384-well “assay plates”. In the following the compounds were mixed with 9 μL of assays components plus 9 μL enzyme corresponding to a 1:181 dilution steps enabling the final concentration of 10, 3.0, 1.0, 0.3, 0.1, 0.03, 0.01 and 0.003 μM, respectively. The preparation of the master plates were handled by the Matrix PlateMate Plus robot and replication of assay plates by the HummingBird robot.

T1 sequence (O60674 808-1132): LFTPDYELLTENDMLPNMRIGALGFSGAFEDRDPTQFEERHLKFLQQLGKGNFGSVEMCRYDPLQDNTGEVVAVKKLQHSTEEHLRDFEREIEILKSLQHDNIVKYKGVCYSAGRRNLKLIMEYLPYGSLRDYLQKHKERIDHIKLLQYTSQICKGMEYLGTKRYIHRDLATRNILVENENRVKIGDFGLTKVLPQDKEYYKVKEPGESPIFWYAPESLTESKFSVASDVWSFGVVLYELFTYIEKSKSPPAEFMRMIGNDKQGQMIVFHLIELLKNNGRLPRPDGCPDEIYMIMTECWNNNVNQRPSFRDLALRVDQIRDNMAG

Which IC50 does the source give for `C[C@@H]1CN[C@@H](C)CN1c1ccc(Nc2ncc3ccn(-c4ccc(S(N)(=O)=O)cc4)c3n2)cn1` (racemic) [Example 357, 4-{2-[6-((2R,5S)-2,5-Dimethyl-piperazin-1-yl)-pyridin-3-ylamino]-pyrrolo[2,3-d]pyrimidin-7-yl}-benzenesulfonamide] here?
Its IC50 is 6.9 nM.

`Cc1ccc(Nc2ncc3ccn(-c4ccc(C(=O)N5CCOCC5)c(F)c4)c3n2)cc1CN1C[C@H](C)NC[C@H]1C` (racemic) [Example 379, (4-{2-[3-((2R,5S)-2,5-Dimethyl-piperazin-1-ylmethyl)-4-methyl-phenylamino]-pyrrolo[2,3-d]pyrimidin-7-yl}-2-fluoro-phenyl)-morpholin-4-yl-methanone] was tested. Which IC50 did it give?
Its IC50 is 11 nM.

How did the IC50 turn out when `OC1CCN(Cc2ccc(Nc3ncc4ccn(-c5cc(F)c(CN6CCOCC6)c(F)c5)c4n3)cn2)C1` (racemic) [Example 388, 1-{5-[7-(3,5-Difluoro-4-morpholin-4-ylmethyl-phenyl)-7H-pyrrolo[2,3-d]pyrimidin-2-ylamino]-pyridin-2-ylmethyl}-pyrrolidin-3-ol] was run?
The IC50 was ≤ 3 nM.

For `OC1CCN(Cc2cc(Nc3ncc4ccn(-c5cc(F)c(CN6CCOCC6)c(F)c5)c4n3)ccn2)C1` (racemic) [Example 416, 1-{4-[7-(3,5-Difluoro-4-morpholin-4-ylmethyl-phenyl)-7H-pyrrolo[2,3-d]pyrimidin-2-ylamino]-pyridin-2-ylmethyl}-pyrrolidin-3-ol], which IC50 is on record?
The IC50 was ≤ 3 nM.

With `COC(C)c1ccc(-n2ccc3cnc(Nc4ccc(N5CCN(C)CC5)nc4)nc32)cc1` (racemic) [Example 449, {7-[4-(1-Methoxy-ethyl)-phenyl]-7H-pyrrolo[2,3-d]pyrimidin-2-yl}-[6-(4-methyl-piperazin-1-yl)-pyridin-3-yl]-amine] as the compound, how does the IC50 read?
The IC50 was ≤ 3 nM.

Which IC50 does the source give for `COc1ccc(Nc2ncc3ccn(-c4ccc(S(C)(=O)=O)cc4)c3n2)cc1OC` [Example 5, (3,4-Dimethoxy-phenyl)-[7-(4-methanesulfonyl-phenyl)-7H-pyrrolo[2,3-d]pyrimidin-2-yl]-amine] here?
The IC50 was < 3 nM.

`COc1ccc(Nc2ncc3ccn(-c4ccc(S(=O)(=O)NC(C)(C)C)cc4)c3n2)cc1OC` [Example 6, N-tert-Butyl-4-[2-(3,4-dimethoxy-phenylamino)-pyrrolo[2,3-d]pyrimidin-7-yl]-benzenesulfonamide] was tested. Which IC50 did it give?
Its IC50 is < 3 nM.

Which IC50 does the source give for `COc1cc(Nc2ncc3ccn(-c4ccc(C(=O)NC(C)(C)C)cc4)c3n2)cc(OC)c1OC` [Example 9, N-tert-Butyl-4-[2-(3,4,5-trimethoxy-phenylamino)-pyrrolo[2,3-d]pyrimidin-7-yl]-benzamide] here?
The IC50 was < 3 nM.

`COc1cc(Nc2ncc3ccn(-c4ccc(S(=O)(=O)N(C)C)cc4)c3n2)cc(OC)c1OC` [Example 10, N,N-Dimethyl-4-[2-(3,4,5-trimethoxy-phenylamino)-pyrrolo[2,3-d]pyrimidin-7-yl]-benzenesulfonamide] was tested. Which IC50 did it give?
Its IC50 is < 3 nM.

With `COc1cc(C)c(Nc2ncc3ccn(-c4ccc(S(C)(=O)=O)cc4)c3n2)cc1OC` [Example 11, (4,5-Dimethoxy-2-methyl-phenyl)-[7-(4-methanesulfonyl-phenyl)-7H-pyrrolo[2,3-d]pyrimidin-2-yl]-amine] as the compound, how does the IC50 read?
The IC50 was 190 nM.

Which IC50 does the source give for `CN1CCN2c3ccc(Nc4ncc5ccn(-c6ccc(S(C)(=O)=O)cc6)c5n4)cc3COCC2C1` (stereo not shown) [Example 12, [7-(4-Methanesulfonyl-phenyl)-7H-pyrrolo[2,3-d]pyrimidin-2-yl]-(3-methyl-1,2,3,4,4a,5-hexahydro-7H-6-oxa-3,11b-diaza-dibenzo[a,c]cyclohepten-9-yl)-amine] here?
The IC50 was < 3 nM.

For `CS(=O)(=O)c1ccc(-n2ccc3cnc(Nc4ccc5c(c4)OC(F)(F)C(F)(F)O5)nc32)cc1` [Example 14, [7-(4-Methanesulfonyl-phenyl)-7H-pyrrolo[2,3-d]pyrimidin-2-yl]-(2,2,3,3-tetrafluoro-2,3-dihydro-benzo[1,4]dioxin-6-yl)-amine], which IC50 is on record?
The IC50 was 2100 nM.

For `CS(=O)(=O)c1ccc(-n2ccc3cnc(Nc4ccc5c(c4)OCO5)nc32)cc1` [Example 15, Benzo[1,3]dioxol-5-yl-[7-(4-methanesulfonyl-phenyl)-7H-pyrrolo[2,3-d]pyrimidin-2-yl]-amine], which IC50 is on record?
The IC50 was 8.5 nM.

`CN1CCN(c2ccc(Nc3ncc4ccn(-c5ccc(S(C)(=O)=O)cc5)c4n3)cc2)CC1` [Example 18, [7-(4-Methanesulfonyl-phenyl)-7H-pyrrolo[2,3-d]pyrimidin-2-yl]-[4-(4-methyl-piperazin-1-yl)-phenyl]-amine] was tested. Which IC50 did it give?
The IC50 was < 3 nM.

`CS(=O)(=O)c1ccc(-n2ccc3cnc(Nc4ccccc4)nc32)cc1` [Example 19, [7-(4-Methanesulfonyl-phenyl)-7H-pyrrolo[2,3-d]pyrimidin-2-yl]-phenyl-amine] was tested. Which IC50 did it give?
The IC50 was 6.9 nM.

Which IC50 does the source give for `COc1ccc(Nc2ncc3ccn(-c4ccc(S(C)(=O)=O)cc4)c3n2)cc1` [Example 20, [7-(4-Methanesulfonyl-phenyl)-7H-pyrrolo[2,3-d]pyrimidin-2-yl]-(4-methoxy-phenyl)-amine] here?
The IC50 was 3.9 nM.

For `CN(C)c1ccc(Nc2ncc3ccn(-c4ccc(S(C)(=O)=O)cc4)c3n2)cc1` [Example 21, N-[7-(4-Methanesulfonyl-phenyl)-7H-pyrrolo[2,3-d]pyrimidin-2-yl]-N′,N′-dimethyl-benzene-1,4-diamine], which IC50 is on record?
The IC50 was 23 nM.

Which IC50 does the source give for `COc1ccc(Nc2ncc3ccn(-c4ccc(S(C)(=O)=O)cc4)c3n2)c(OC)c1` [Example 22, (2,4-Dimethoxy-phenyl)-[7-(4-methanesulfonyl-phenyl)-7H-pyrrolo[2,3-d]pyrimidin-2-yl]-amine] here?
Its IC50 is 170 nM.

With `COc1cc(Nc2ncc3ccn(-c4ccc(S(C)(=O)=O)cc4)c3n2)cc(OC)c1` [Example 23, (3,5-Dimethoxy-phenyl)-[7-(4-methanesulfonyl-phenyl)-7H-pyrrolo[2,3-d]pyrimidin-2-yl]-amine] as the compound, how does the IC50 read?
Its IC50 is 3.6 nM.

`COc1ccc(Nc2ncc3ccn(-c4ccc(S(C)(=O)=O)cc4)c3n2)cc1O` [Example 24, 5-[7-(4-Methanesulfonyl-phenyl)-7H-pyrrolo[2,3-d]pyrimidin-2-ylamino]-2-methoxy-phenol] was tested. Which IC50 did it give?
The IC50 was 3.5 nM.

`COc1ccc(Nc2ncc3ccn(-c4ccc(S(C)(=O)=O)cc4)c3n2)cc1N1CCN(C)CC1` [Example 25, [7-(4-Methanesulfonyl-phenyl)-7H-pyrrolo[2,3-d]pyrimidin-2-yl]-[4-methoxy-3-(4-methyl-piperazin-1-yl)-phenyl]-amine] was tested. Which IC50 did it give?
Its IC50 is < 3 nM.

Which IC50 does the source give for `COc1ccc(Nc2ncc3ccn(-c4ccc(S(C)(=O)=O)cc4)c3n2)cc1OCCN(C)C` [Example 26, [3-(2-Dimethylamino-ethoxy)-4-methoxy-phenyl]-[7-(4-methanesulfonyl-phenyl)-7H-pyrrolo[2,3-d]pyrimidin-2-yl]-amine] here?
The IC50 was < 3 nM.

Which IC50 does the source give for `CN1CCN(C(=O)c2ccc(Nc3ncc4ccn(-c5ccc(S(C)(=O)=O)cc5)c4n3)cc2)CC1` [Example 28, {4-[7-(4-Methanesulfonyl-phenyl)-7H-pyrrolo[2,3-d]pyrimidin-2-ylamino]-phenyl}-(4-methyl-piperazin-1-yl)-methanone] here?
Its IC50 is 4 nM.

`CN1CCN(CCOc2cccc(Nc3ncc4ccn(-c5ccc(S(C)(=O)=O)cc5)c4n3)c2)CC1` [Example 32, [7-(4-Methanesulfonyl-phenyl)-7H-pyrrolo[2,3-d]pyrimidin-2-yl]-{3-[2-(4-methyl-piperazin-1-yl)-ethoxy]-phenyl}-amine] was tested. Which IC50 did it give?
Its IC50 is 5.4 nM.

`CCN(CC)CCOc1ccc(Nc2ncc3ccn(-c4ccc(S(C)(=O)=O)cc4)c3n2)cc1` [Example 33, [4-(2-Diethylamino-ethoxy)-phenyl]-[7-(4-methanesulfonyl-phenyl)-7H-pyrrolo[2,3-d]pyrimidin-2-yl]-amine] was tested. Which IC50 did it give?
The IC50 was < 3 nM.
